Data on one compound can be found in US20110152166A1, “METHOD OF MODULATION OF PROTEIN PHOSPHORYLATION-DEPENDENT CONFORMATIONAL TRANSITIONS WITH LOW MOLECULAR WEIGHT COMPOUNDS” (priority 2006, published 2011).

Assay [1] has as its target T1, PDK1 phosphorylation of GST-S6K1-T2[Thr412Glu] (Homo sapiens, UniProt O15530).
T1 construct: GST (N); made in house; host or cells: HEK293
The assay can be described thus: PDK1 phosphorylation of substrate S6K1 in vitro. It counts as biochemical. Particulars: compound 100 and 200 μM. How it is done:
FIG. 4—Small compounds designed to bind the HM/PIF-pocket of PDK1 can block the PDK1-dependent phosphorylation and activation of substrates that require docking to the HM/PIF-pocket of PDK1. (A) Effect of compound 1 (100 and 200 μM) on PDK1 phosphorylation of its substrate S6K1. The phosphorylation reaction was performed in vitro with [γ^32P]ATP and then separated on SDS-PAGE followed by exposure to phosphorimager. The radioactive band corresponding to phosphorylated GST-56K1-T2[Thr412Glu] (S6K[412E]) is indicated. (B) PDK1 or PDK1[Val127Leu] (PDK1[V127L]) were pre-incubated with GST-[…]N-SGK1 [Ser422Asp] […] (C) The activity of S6K was measured in vitro after glutathione sepharose purification; aliquots of purified proteins were separated on SDS-PAGE and the level of activation loop phosphorylation was visualized by immunoblotting using phospho-specific antibodies that recognize the phosphorylated activation loop, followed by stripping of the membranes and re-probing with anti-GST to verify the presence of equal amounts of protein. (D) Cells overexpressing GST-56K1-T2[Thr412Glu] were treated as in (C) but S6K activity was measured in vitro after immunoprecipitation of the GST-fusion protein with anti-GST antibodies; the level of S6K expression was analysed by western-blotting of crude extracts. […]

In the next assay the target is T2, PDK1 (Homo sapiens, UniProt O15530).
T2 sequence (O15530 1-556): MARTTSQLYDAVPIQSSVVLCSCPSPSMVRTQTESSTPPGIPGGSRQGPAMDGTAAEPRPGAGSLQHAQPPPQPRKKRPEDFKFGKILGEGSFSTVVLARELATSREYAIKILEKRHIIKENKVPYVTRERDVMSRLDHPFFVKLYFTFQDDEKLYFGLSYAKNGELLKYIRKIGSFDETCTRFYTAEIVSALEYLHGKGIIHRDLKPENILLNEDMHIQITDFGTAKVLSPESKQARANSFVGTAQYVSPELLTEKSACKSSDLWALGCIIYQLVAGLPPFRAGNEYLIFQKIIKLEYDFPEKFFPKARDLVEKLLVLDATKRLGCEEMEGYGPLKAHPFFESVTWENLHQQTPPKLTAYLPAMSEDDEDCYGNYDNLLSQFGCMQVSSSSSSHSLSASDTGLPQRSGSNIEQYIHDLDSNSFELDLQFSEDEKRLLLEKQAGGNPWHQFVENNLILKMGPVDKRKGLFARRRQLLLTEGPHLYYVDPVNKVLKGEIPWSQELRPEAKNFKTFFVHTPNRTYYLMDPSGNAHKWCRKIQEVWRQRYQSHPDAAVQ
The assay is described as follows: PDK1 thermal denaturation. Particulars: data not shown.

Turning to `O=C(O)CSC(CC(=O)c1ccc(Cl)cc1)c1ccccc1` (centres unmarked) [Compound 1], in assay [1], the “PDK1-catalyzed phosphorylation of S6K1 (in words)” value was “decreased”. Also, the “stabilization of PDK1 to thermal denaturation (in words)” value at PDK1 is recorded as “did not stabilize”.
